According to publication PMC10763615, “Identification and engineering of potent cyclic peptides with selective or promiscuous binding through biochemical profiling and bioinformatic data analysis” (RSC Chemical Biology, 2023):
Like-named read-outs stand apart in the source and are kept apart here. Positions of bridges follow the written chain, without caps; N, C: chain ends. Residues, ends and D or L forms follow the SMILES beside them.

Assays:
Type in all cases: binding
FGF-R4 ECD = target: T1, FGF-R4 ECD (Homo sapiens, UniProt P22455); assay: single concentration BLI of crude peptides
T1 construct: DNA constructs for the extracellular domain (ECD) of human FGF-; HPC4 (C); made in house; host or cells: HEK 293-6E
T1 sequence (P22455 22-369 limits assumed): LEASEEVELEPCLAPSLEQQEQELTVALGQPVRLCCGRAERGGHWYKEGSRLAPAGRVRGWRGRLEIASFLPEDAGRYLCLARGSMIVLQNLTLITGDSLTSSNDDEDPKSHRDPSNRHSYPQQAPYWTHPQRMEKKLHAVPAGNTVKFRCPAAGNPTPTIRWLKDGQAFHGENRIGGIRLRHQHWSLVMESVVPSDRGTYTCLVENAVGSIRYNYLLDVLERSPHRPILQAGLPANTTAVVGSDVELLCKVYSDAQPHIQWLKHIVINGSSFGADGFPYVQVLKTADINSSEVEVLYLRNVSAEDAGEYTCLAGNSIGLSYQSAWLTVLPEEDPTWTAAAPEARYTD
How it was run: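 Streptavidin biosensors carrying biotinylated FGF receptor ECD were immersed in peptide (~1 μM for crude single-point runs, a concentration series for purified peptides) and then in peptide-free buffer. KD was obtained by fitting the BLI association and dissociation curves.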

FGF-R1C ECD = target: T2, FGF-R1C ECD (Homo sapiens, UniProt P11362); assay: biochemical; parameters: DNA constructs for the extracellular domain (ECD) of human FGF-; HPC4 (C); made in house; host or cells: HEK 293-6E
T2 sequence (P11362 22-376 limits assumed): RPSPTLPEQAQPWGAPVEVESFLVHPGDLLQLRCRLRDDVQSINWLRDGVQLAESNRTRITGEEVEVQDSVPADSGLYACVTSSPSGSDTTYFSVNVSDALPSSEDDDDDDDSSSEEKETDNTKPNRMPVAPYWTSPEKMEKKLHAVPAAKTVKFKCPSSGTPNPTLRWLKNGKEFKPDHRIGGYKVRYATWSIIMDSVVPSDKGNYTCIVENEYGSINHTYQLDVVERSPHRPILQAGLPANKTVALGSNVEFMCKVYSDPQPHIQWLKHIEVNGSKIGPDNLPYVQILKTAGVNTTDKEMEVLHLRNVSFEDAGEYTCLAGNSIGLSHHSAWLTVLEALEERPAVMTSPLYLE
How it was run: (§1)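 Biotinylated FGF-R ECD on streptavidin biosensors was dipped into ~1 μM crude peptide in PBS pH7.4 with 0.05% Tween-20 and 0.01% BSA for association, then into buffer for dissociation, and followed by BLI. Fitted KD values were adjusted for peptide concentration measured by UPLC-CAD.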

FGF-R3C ECD = target: T3, FGF-R3C ECD (Homo sapiens, UniProt P22607); assay: biochemical; parameters: DNA constructs for the extracellular domain (ECD) of human FGF-; HPC4 (C); made in house; host or cells: HEK 293-6E
T3 sequence (P22607 23-375 limits assumed): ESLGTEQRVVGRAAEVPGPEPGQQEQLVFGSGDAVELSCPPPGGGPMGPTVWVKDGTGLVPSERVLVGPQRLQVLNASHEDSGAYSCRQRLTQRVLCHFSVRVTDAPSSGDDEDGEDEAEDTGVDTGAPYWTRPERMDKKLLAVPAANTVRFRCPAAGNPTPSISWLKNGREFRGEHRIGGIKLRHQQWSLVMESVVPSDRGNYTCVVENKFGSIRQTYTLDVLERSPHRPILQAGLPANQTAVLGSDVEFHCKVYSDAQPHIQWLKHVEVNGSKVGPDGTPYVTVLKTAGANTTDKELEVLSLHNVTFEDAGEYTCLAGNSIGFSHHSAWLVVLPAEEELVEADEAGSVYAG
How it was run: as §1

[1] = crude T18 selection 1 (1:1:1) peptides, single concentration BLI (Table S4), read-out: KD (4)

Row | SMILES | Kd (FGF-R4 ECD; [1]) [µM] | Kd (FGF-R1C ECD) [µM] | Kd (FGF-R3C ECD) [µM] | Kd (FGF-R4 ECD) [µM] | Kd (FGF-R4 ECD; crude NNK peptides, single concentration BLI (Table S3), read-out: KD (4)) [µM]
1 | CSCC[C@H](NC(C)=O)C(=O)N[C@H]1CSSC[C@@H](C(=O)NCC(=O)N[C@@H](CO)C(=O)NCC(=O)N[C@@H](CO)C(=O)N[C@@H](CC(=O)O)C(=O)N[C@@H](Cc2ccc(O)cc2)C(=O)N[C@@H](CCCCN)C(=O)N[C@@H](CC(=O)O)C(=O)N[C@@H](CC(=O)O)C(=O)N[C@@H](CC(=O)O)C(=O)N[C@@H](CC(=O)O)C(=O)N[C@@H](CCCCN)C(N)=O)NC(=O)[C@H](Cc2c[nH]cn2)NC(=O)[C@H](CC(C)C)NC(=O)[C@H](Cc2ccc(O)cc2)NC(=O)[C@H](CC(C)C)NC(=O)[C@H](CCC(=O)O)NC(=O)[C@H](CCC(=O)O)NC(=O)[C@H](Cc2ccccc2)NC(=O)[C@H](CC(C)C)NC(=O)[C@H](Cc2ccccc2)NC(=O)[C@H](CCC(=O)O)NC(=O)[C@H](Cc2ccc(O)cc2)NC(=O)[C@H]([C@@H](C)O)NC1=O (Ac-MCTYEFLFEELYLHCGSGSDYKDDDDK-NH2; disulfide 2-15) | > 10 | > 10 | > 10 |  | 
2 | CSCC[C@H](NC(C)=O)C(=O)N[C@H]1CSSC[C@@H](C(=O)NCC(=O)N[C@@H](CO)C(=O)NCC(=O)N[C@@H](CO)C(=O)N[C@@H](CC(=O)O)C(=O)N[C@@H](Cc2ccc(O)cc2)C(=O)N[C@@H](CCCCN)C(=O)N[C@@H](CC(=O)O)C(=O)N[C@@H](CC(=O)O)C(=O)N[C@@H](CC(=O)O)C(=O)N[C@@H](CC(=O)O)C(=O)N[C@@H](CCCCN)C(N)=O)NC(=O)[C@H](CCCNC(=N)N)NC(=O)[C@H](Cc2c[nH]cn2)NC(=O)[C@H](Cc2ccccc2)NC(=O)[C@H](CC(C)C)NC(=O)[C@H](CCCCN)NC(=O)[C@H](Cc2ccc(O)cc2)NC(=O)[C@H](Cc2ccc(O)cc2)NC(=O)[C@H](Cc2ccc(O)cc2)NC(=O)[C@H](C(C)C)NC(=O)[C@H](Cc2ccc(O)cc2)NC(=O)[C@H]([C@@H](C)O)NC1=O (Ac-MCTYVYYYKLFHRCGSGSDYKDDDDK-NH2; disulfide 2-14) | 0.003 | > 10 | > 10 |  | 
3 | CC[C@H](C)[C@@H]1NC(=O)[C@H](Cc2ccc(O)cc2)NC(=O)[C@H](CCCCN)NC(=O)[C@H](C(C)C)NC(=O)[C@@H](NC(=O)[C@H](CCSC)NC(C)=O)CSSC[C@@H](C(=O)NCC(=O)N[C@@H](CO)C(=O)NCC(=O)N[C@@H](CO)C(=O)N[C@@H](CC(=O)O)C(=O)N[C@@H](Cc2ccc(O)cc2)C(=O)N[C@@H](CCCCN)C(=O)N[C@@H](CC(=O)O)C(=O)N[C@@H](CC(=O)O)C(=O)N[C@@H](CC(=O)O)C(=O)N[C@@H](CC(=O)O)C(=O)N[C@@H](CCCCN)C(N)=O)NC(=O)[C@H](Cc2c[nH]cn2)NC(=O)[C@H](Cc2ccccc2)NC(=O)[C@H](C(C)C)NC(=O)[C@H](CO)NC(=O)[C@H](Cc2c[nH]c3ccccc23)NC(=O)[C@H](Cc2ccc(O)cc2)NC(=O)[C@H](CCCCN)NC1=O (Ac-MCVKYIKYWSVFHCGSGSDYKDDDDK-NH2; disulfide 2-14) | 0.017 | > 10 | > 10 |  | 
4 | CSCC[C@H](NC(C)=O)C(=O)N[C@H]1CSSC[C@@H](C(=O)NCC(=O)N[C@@H](CO)C(=O)NCC(=O)N[C@@H](CO)C(=O)N[C@@H](CC(=O)O)C(=O)N[C@@H](Cc2ccc(O)cc2)C(=O)N[C@@H](CCCCN)C(=O)N[C@@H](CC(=O)O)C(=O)N[C@@H](CC(=O)O)C(=O)N[C@@H](CC(=O)O)C(=O)N[C@@H](CC(=O)O)C(=O)N[C@@H](CCCCN)C(N)=O)NC(=O)[C@H](Cc2ccc(O)cc2)NC(=O)[C@H](Cc2c[nH]c3ccccc23)NC(=O)[C@H](CC(N)=O)NC(=O)[C@H](CCCNC(=N)N)NC(=O)[C@H](CC(=O)O)NC(=O)[C@H](CC(C)C)NC(=O)[C@H](CCCNC(=N)N)NC(=O)[C@H](Cc2ccc(O)cc2)NC(=O)[C@H](CCCCN)NC(=O)[C@H](Cc2c[nH]c3ccccc23)NC(=O)[C@H](C(C)C)NC1=O (Ac-MCVWKYRLDRNWYCGSGSDYKDDDDK-NH2; disulfide 2-14) | 2.04 | 0.078 | > 10 |  | 
5 | CSCC[C@H](NC(C)=O)C(=O)N[C@H]1CSSC[C@@H](C(=O)NCC(=O)N[C@@H](CO)C(=O)NCC(=O)N[C@@H](CO)C(=O)N[C@@H](CC(=O)O)C(=O)N[C@@H](Cc2ccc(O)cc2)C(=O)N[C@@H](CCCCN)C(=O)N[C@@H](CC(=O)O)C(=O)N[C@@H](CC(=O)O)C(=O)N[C@@H](CC(=O)O)C(=O)N[C@@H](CC(=O)O)C(=O)N[C@@H](CCCCN)C(N)=O)NC(=O)[C@H](Cc2c[nH]cn2)NC(=O)[C@H](Cc2c[nH]c3ccccc23)NC(=O)[C@H](CC(N)=O)NC(=O)[C@H](Cc2ccc(O)cc2)NC(=O)[C@H](Cc2c[nH]cn2)NC(=O)[C@H](Cc2c[nH]cn2)NC(=O)[C@H](CO)NC(=O)[C@H](Cc2ccc(O)cc2)NC(=O)[C@H](CCC(N)=O)NC(=O)[C@H](Cc2c[nH]c3ccccc23)NC(=O)[C@H](C(C)C)NC1=O (Ac-MCVWQYSHHYNWHCGSGSDYKDDDDK-NH2; disulfide 2-14) | > 10 | > 10 | > 10 |  | 
6 | CC[C@H](C)[C@@H]1NC(=O)[C@H](Cc2c[nH]c3ccccc23)NC(=O)[C@H]([C@@H](C)CC)NC(=O)[C@H](CO)NC(=O)[C@@H]2CCCN2C(=O)[C@H](Cc2c[nH]cn2)NC(=O)[C@H](CO)NC(=O)[C@H](Cc2c[nH]c3ccccc23)NC(=O)[C@H](Cc2c[nH]c3ccccc23)NC(=O)[C@H](C(C)C)NC(=O)[C@@H](NC(=O)[C@H](CCSC)NC(C)=O)CSSC[C@@H](C(=O)NCC(=O)N[C@@H](CO)C(=O)NCC(=O)N[C@@H](CO)C(=O)N[C@@H](CC(=O)O)C(=O)N[C@@H](Cc2ccc(O)cc2)C(=O)N[C@@H](CCCCN)C(=O)N[C@@H](CC(=O)O)C(=O)N[C@@H](CC(=O)O)C(=O)N[C@@H](CC(=O)O)C(=O)N[C@@H](CC(=O)O)C(=O)N[C@@H](CCCCN)C(N)=O)NC1=O (Ac-MCVWWSHPSIWICGSGSDYKDDDDK-NH2; disulfide 2-13) | > 10 | 0.065 | > 10 |  | 
7 | CC[C@H](C)[C@@H]1NC(=O)[C@H](CC(C)C)NC(=O)[C@H](CCCCN)NC(=O)[C@H](CO)NC(=O)[C@H](Cc2c[nH]c3ccccc23)NC(=O)[C@@H](NC(=O)[C@H](CCSC)NC(C)=O)CSSC[C@@H](C(=O)NCC(=O)N[C@@H](CO)C(=O)NCC(=O)N[C@@H](CO)C(=O)N[C@@H](CC(=O)O)C(=O)N[C@@H](Cc2ccc(O)cc2)C(=O)N[C@@H](CCCCN)C(=O)N[C@@H](CC(=O)O)C(=O)N[C@@H](CC(=O)O)C(=O)N[C@@H](CC(=O)O)C(=O)N[C@@H](CC(=O)O)C(=O)N[C@@H](CCCCN)C(N)=O)NC(=O)[C@H](CCC(N)=O)NC(=O)[C@H](CO)NC(=O)[C@H](CC(C)C)NC(=O)[C@H](Cc2ccc(O)cc2)NC(=O)[C@H](Cc2ccc(O)cc2)NC(=O)[C@H](CCCCN)NC(=O)[C@H]([C@@H](C)CC)NC1=O (Ac-MCWSKLIIKYYLSQCGSGSDYKDDDDK-NH2; disulfide 2-15) |  | > 10 | > 10 | 0.016 | 
8 | CSCC[C@H](NC(C)=O)C(=O)N[C@H]1CSSC[C@@H](C(=O)NCC(=O)N[C@@H](CO)C(=O)NCC(=O)N[C@@H](CO)C(=O)N[C@@H](CC(=O)O)C(=O)N[C@@H](Cc2ccc(O)cc2)C(=O)N[C@@H](CCCCN)C(=O)N[C@@H](CC(=O)O)C(=O)N[C@@H](CC(=O)O)C(=O)N[C@@H](CC(=O)O)C(=O)N[C@@H](CC(=O)O)C(=O)N[C@@H](CCCCN)C(N)=O)NC(=O)[C@H](CCC(N)=O)NC(=O)[C@H](CCCCN)NC(=O)[C@H](Cc2ccc(O)cc2)NC(=O)[C@H](C(C)C)NC(=O)[C@H]([C@@H](C)O)NC(=O)[C@H](Cc2c[nH]c3ccccc23)NC(=O)[C@H](Cc2ccc(O)cc2)NC(=O)[C@H](CCCCN)NC(=O)[C@H](C(C)C)NC(=O)[C@H](Cc2c[nH]c3ccccc23)NC1=O (Ac-MCWVKYWTVYKQCGSGSDYKDDDDK-NH2; disulfide 2-13) |  | > 10 | > 10 |  | 0.207
